The source of these data is patent publication US4405743A, “Pyrazolylpyrimidine derivatives” (Hokko Chemical Industry Co., Ltd., priority 1981, dated 1983).

The subject of one data set is Pyricularia oryzae.
Assay: not given
Type of data set: in vivo, Pyricularia oryzae on rice plant (variety: Asahi). Particulars: rice blast, prevention; 200 ppm; 5 days after inoculation.
`Cc1ccc(C)c(Oc2cc(C)nc(-n3nc(C)cc3C)n2)c1` [Compound 28]: the “Control Value” is 100%.

On to `Cc1cc(Oc2ccc(C(C)C)cc2)nc(-n2nc(C)cc2C)n1` [Compound 14], for which the “Control Value” amounted to 100%.

As for `Cc1cc(Oc2ccc([N+](=O)[O-])c(C)c2)nc(-n2nc(C)cc2C)n1` [Compound 31], the “Control Value” is listed as 100%.

For `CSc1ccc(Oc2cc(C)nc(-n3nc(C)cc3C)n2)cc1` [Compound 18], the “Control Value” is 100%.

On to `Cc1cc(Oc2ccc(Cl)c(Cl)c2)nc(-n2nc(C)cc2C)n1` [Compound 24], for which the “Control Value” is recorded as 92%.

Turning to `Cc1cc(Oc2cccc(C(F)(F)F)c2)nc(-n2nc(C)cc2C)n1` [Compound 21], the “Control Value” came out at 100%.

Take `Cc1cc(Oc2ccc(I)cc2)nc(-n2nc(C)cc2C)n1` [Compound 10]: the “Control Value” was 100%.

On to `Cc1cc(Oc2ccc(C#N)cc2)nc(-n2nc(C)cc2C)n1` [Compound 19], for which the “Control Value” is given as 100%.

In the case of `Cc1cc(Oc2ccc(Cl)c(C)c2)nc(-n2nc(C)cc2C)n1` [Compound 26], the “Control Value” was 100%.

As to `CCOC(=O)c1ccc(Oc2cc(C)nc(-n3nc(C)cc3C)n2)cc1` [Compound 22], the “Control Value” was 100%.

As for `Cc1cc(Oc2ccc(Br)cc2)nc(-n2nc(C)cc2C)n1` [Compound 8], the “Control Value” was determined as 100%.

Another data set concerns Pyricularia oryzae.
Assay: not given
Particulars: rice blast, curative treatment; sprayed liquid 200 ppm; 5 days after spraying. It is filed as in vivo, Pyricularia oryzae on rice plant (variety: Asahi).
For `Cc1ccc(C)c(Oc2cc(C)nc(-n3nc(C)cc3C)n2)c1` [Compound 28], the “Control Value” stood at 98%.

As for `Cc1cc(Oc2ccc(C(C)C)cc2)nc(-n2nc(C)cc2C)n1` [Compound 14], the “Control Value” was found to be 92%.

As to `Cc1cc(Oc2ccc([N+](=O)[O-])c(C)c2)nc(-n2nc(C)cc2C)n1` [Compound 31], the “Control Value” stood at 84%.

As to `Cc1cc(Oc2ccc(Cl)c(Cl)c2)nc(-n2nc(C)cc2C)n1` [Compound 24], the “Control Value” was found to be 84%.

The next data set relates to Cochliobolus miyabeanus. The data set is described as follows: Effect of controlling rice brown spot, Experimental Example 3. It is filed as in vivo, Cochliobolus miyabeanus on rice plant (variety: Asahi). The conditions noted are these: sprayed liquid 500 ppm, 5 days after inoculation.
Consider `Cc1ccc(C)c(Oc2cc(C)nc(-n3nc(C)cc3C)n2)c1` [Compound 28], for which the “Control Value” stood at 100%.

In the case of `Cc1cc(Oc2ccc(C(C)C)cc2)nc(-n2nc(C)cc2C)n1` [Compound 14], the “Control Value” stood at 94%.

As for `CSc1ccc(Oc2cc(C)nc(-n3nc(C)cc3C)n2)cc1` [Compound 18], the “Control Value” turned out to be 90%.

`Cc1cc(Oc2ccc(Cl)c(Cl)c2)nc(-n2nc(C)cc2C)n1` [Compound 24]: the “Control Value” was found to be 89%.

As to `Cc1cc(Oc2cccc(C(F)(F)F)c2)nc(-n2nc(C)cc2C)n1` [Compound 21], the “Control Value” is given as 77%.

Regarding `Cc1cc(Oc2ccc(I)cc2)nc(-n2nc(C)cc2C)n1` [Compound 10], the “Control Value” is on record as 60%.

For `Cc1cc(Oc2ccc(Cl)c(C)c2)nc(-n2nc(C)cc2C)n1` [Compound 26], the “Control Value” is 100%.

As to `CCOC(=O)c1ccc(Oc2cc(C)nc(-n3nc(C)cc3C)n2)cc1` [Compound 22], the “Control Value” was found to be 100%.

On to `Cc1cc(Oc2ccc(Br)cc2)nc(-n2nc(C)cc2C)n1` [Compound 8], for which the “Control Value” stood at 61%.

The subject of a further data set is Sphaerotheca friliginea. The data set is described as follows: Effect of controlling cucumber powdery mildew, Experimental Example 4. Particulars: sprayed liquid 200 ppm, 10 days after inoculation. Type of data set: in vivo. The method, then: 10 ml of each of test liquids diluted to a predetermined concentration was sprayed over seedlings of a cucumber plant (variety: Sagami Hanpaku) grown up to the first leaf stage which has been soil cultured in an unglazed pot with a diameter of 9 cm in a green house. After allowing to stand overnight, the seedlings were sprayed for inoculation with a spore suspension of Sphaerotheca friliginea. Ten days after the inoculation, the rate of a lesion area (%) was checked and a control value was evaluated from the following equation. The degree of chemical injury against a cucumber plant was determined in the same manner as in Experimental Example.
As for `Cc1ccc(C)c(Oc2cc(C)nc(-n3nc(C)cc3C)n2)c1` [Compound 28], the Control Value was 100%.

On to `Cc1cc(Oc2ccc(C(C)C)cc2)nc(-n2nc(C)cc2C)n1` [Compound 14], for which the Control Value was determined as 100%.

`Cc1cc(Oc2ccc([N+](=O)[O-])c(C)c2)nc(-n2nc(C)cc2C)n1` [Compound 31] yielded a Control Value of 77%.

As to `Cc1cc(Oc2cccc(C(F)(F)F)c2)nc(-n2nc(C)cc2C)n1` [Compound 21], the Control Value is given as 86%.

Consider `Cc1cc(Oc2ccc(Br)cc2)nc(-n2nc(C)cc2C)n1` [Compound 8], for which the Control Value was determined as 78%.

The subject of another data set is rice plant.
Assay: not given
The conditions noted are these: blast prevention test, 200 ppm.
Regarding `Cc1ccc(C)c(Oc2cc(C)nc(-n3nc(C)cc3C)n2)c1` [Compound 28], the “Degree of chemical injury” value was 0.

For `Cc1cc(Oc2ccc(C(C)C)cc2)nc(-n2nc(C)cc2C)n1` [Compound 14], the “Degree of chemical injury” value was determined as 0.

Take `Cc1cc(Oc2ccc([N+](=O)[O-])c(C)c2)nc(-n2nc(C)cc2C)n1` [Compound 31]: the “Degree of chemical injury” value came out at 0.

`CSc1ccc(Oc2cc(C)nc(-n3nc(C)cc3C)n2)cc1` [Compound 18]: the “Degree of chemical injury” value turned out to be 0.

Consider `Cc1cc(Oc2ccc(Cl)c(Cl)c2)nc(-n2nc(C)cc2C)n1` [Compound 24], for which the “Degree of chemical injury” value amounted to 0.

For the compound `Cc1cc(Oc2cccc(C(F)(F)F)c2)nc(-n2nc(C)cc2C)n1` [Compound 21], the “Degree of chemical injury” value worked out at 0.

On to `Cc1cc(Oc2ccc(I)cc2)nc(-n2nc(C)cc2C)n1` [Compound 10], for which the “Degree of chemical injury” value was 0.

For `Cc1cc(Oc2ccc(C#N)cc2)nc(-n2nc(C)cc2C)n1` [Compound 19], the “Degree of chemical injury” value was 0.

`Cc1cc(Oc2ccc(Cl)c(C)c2)nc(-n2nc(C)cc2C)n1` [Compound 26]: the “Degree of chemical injury” value came to 0.

As to `CCOC(=O)c1ccc(Oc2cc(C)nc(-n3nc(C)cc3C)n2)cc1` [Compound 22], the “Degree of chemical injury” value turned out to be 0.

In the case of `Cc1cc(Oc2ccc(Br)cc2)nc(-n2nc(C)cc2C)n1` [Compound 8], the “Degree of chemical injury” value turned out to be 0.

The subject of a further data set is rice plant.
Assay: not given
The conditions noted are these: blast curative test, 200 ppm.
With `Cc1ccc(C)c(Oc2cc(C)nc(-n3nc(C)cc3C)n2)c1` [Compound 28], the “Degree of chemical injury” value amounted to 0.

On to `Cc1cc(Oc2ccc(C(C)C)cc2)nc(-n2nc(C)cc2C)n1` [Compound 14], for which the “Degree of chemical injury” value amounted to 0.

For the compound `Cc1cc(Oc2ccc([N+](=O)[O-])c(C)c2)nc(-n2nc(C)cc2C)n1` [Compound 31], the “Degree of chemical injury” value is on record as 0.

With `Cc1cc(Oc2ccc(Cl)c(Cl)c2)nc(-n2nc(C)cc2C)n1` [Compound 24], the “Degree of chemical injury” value was found to be 0.

The subject of another data set is rice plant.
Assay: not given
The conditions noted are these: in vivo.
In the case of `Cc1cc(SC#N)nc(-n2nc(C)cc2C)n1` [Comparative Chemical 3], the “Degree of chemical injury” value came out at 5.

As to `Cc1ccc(C)c(Oc2cc(C)nc(-n3nc(C)cc3C)n2)c1` [Compound 28], the “Degree of chemical injury” value was 0.

`Cc1cc(Oc2ccc(C(C)C)cc2)nc(-n2nc(C)cc2C)n1` [Compound 14]: the “Degree of chemical injury” value is reported as 0.

Take `CSc1ccc(Oc2cc(C)nc(-n3nc(C)cc3C)n2)cc1` [Compound 18]: the “Degree of chemical injury” value is reported as 0.

Turning to `Cc1cc(Oc2ccc(Cl)c(Cl)c2)nc(-n2nc(C)cc2C)n1` [Compound 24], the “Degree of chemical injury” value worked out at 0.

`Cc1cc(Oc2cccc(C(F)(F)F)c2)nc(-n2nc(C)cc2C)n1` [Compound 21]: the “Degree of chemical injury” value was 0.

For the compound `Cc1cc(Oc2ccc(I)cc2)nc(-n2nc(C)cc2C)n1` [Compound 10], the “Degree of chemical injury” value was found to be 0.

With `Cc1cc(Oc2ccc(Cl)c(C)c2)nc(-n2nc(C)cc2C)n1` [Compound 26], the “Degree of chemical injury” value worked out at 0.

Regarding `CCOC(=O)c1ccc(Oc2cc(C)nc(-n3nc(C)cc3C)n2)cc1` [Compound 22], the “Degree of chemical injury” value is listed as 0.

Take `Cc1cc(Oc2ccc(Br)cc2)nc(-n2nc(C)cc2C)n1` [Compound 8]: the “Degree of chemical injury” value is on record as 0.

A further data set concerns cucumber plant.
Assay: not given
Particulars: 200 ppm.
Consider `Cc1cc(Oc2ccc([N+](=O)[O-])c(C)c2)nc(-n2nc(C)cc2C)n1` [Compound 31], for which the “Degree of chemical injury” value worked out at 0.

The data set is the same for the next values; noted with them: in vivo.
On to `Cc1ccc(C)c(Oc2cc(C)nc(-n3nc(C)cc3C)n2)c1` [Compound 28], for which the “Degree of chemical injury” value was 0.

In the case of `Cc1cc(Oc2ccc(C(C)C)cc2)nc(-n2nc(C)cc2C)n1` [Compound 14], the “Degree of chemical injury” value was 0.

As to `Cc1cc(Oc2ccc(Cl)c(Cl)c2)nc(-n2nc(C)cc2C)n1` [Compound 24], the “Degree of chemical injury” value turned out to be 0.

For the compound `Cc1cc(Oc2cccc(C(F)(F)F)c2)nc(-n2nc(C)cc2C)n1` [Compound 21], the “Degree of chemical injury” value is on record as 0.

Consider `Cc1cc(Oc2ccc(Br)cc2)nc(-n2nc(C)cc2C)n1` [Compound 8], for which the “Degree of chemical injury” value was 0.
